Experimental data as given in PubChem BioAssay AID504642 (Southern Research Specialized Biocontainment Screening …, 2011).
The source made the active and inactive calls. How the calls were made is not given here.

System: not listed separately
Test: cytotoxicity in HepG2 cells, cytotoxicity control, cell-based (AID 504642)
Settings: HepG2 viability, cytotoxicity counter-screen; at 25 µM (top of the series)

Row | Structure (SMILES) | viability
1 | O=C(/C=C/c1ccccc1)N1CCN(CCN2C(=O)c3cccc4cccc(c34)C2=O)CC1 | 91.1% (inactive)
2 | COC(=O)C(Nc1nc(SCC(=O)NC2CCCCC2)nc2ccccc12)c1ccccc1 (stereo unspecified) | 100% (inactive)

Same assay, conditions: HepG2 viability, cytotoxicity counter-screen; at 50 µM (top of the series)

Row | Structure (SMILES) | viability
3 | COC(=O)CCc1nc2c(C#N)c(-c3ccc(Cl)cc3)ccn2n1 | 102% (inactive)
4 | Cc1nc(SCC(=O)NC2CCCCC2)[nH]c(=O)c1C | 105% (inactive)
5 | CCc1ccc(/C=C2/C(=O)N(C)C(=S)N2CC(=O)OC)s1 | 78.9% (inactive)
6 | COc1cc(NC(=O)C/C(C)=N/NC(=O)c2ccccn2)c(OC)cc1Cl | 86.2% (inactive)
7 | O=C(CSc1nc2ccccc2c(=O)[nH]1)NCc1ccc(Cl)cc1 | 90.7% (inactive)
8 | CCOC1OC(=O)C(Cl)=C1Nc1ccccc1C (stereo unspecified) | 97.8% (inactive)
9 | O=C1C(Br)=Cc2cccc3cccc1c23 | 86.1% (inactive)
10 | COC(=O)C1CC(=O)N(c2ccc(OCc3ccccc3Cl)cc2)C1 (stereo unspecified) | 98.6% (inactive)
11 | COC(=O)c1ccc(CNc2c(N3CCCC3)c(=O)c2=O)cc1 | 97.5% (inactive)
12 | CC1CCN(C(=O)C2CCN(c3nnc(-n4cccc4)s3)CC2)CC1 | 81.6% (inactive)
13 | CCOC(=O)CNC(=O)[C@H](Cc1ccccc1)NC(=O)OCc1ccccc1 | 97.3% (inactive)
14 | CC(=NCc1ccc2c(c1)OCO2)C1=C(O)c2ccccc2C1=O | 96.6% (inactive)
15 | CCOC(=O)COn1c2c(c3c4no[n+]([O-])c4ccc31)CCCC2 | 85.5% (inactive)
16 | Cc1ccc(NC(=O)C2C3/C=C\CCCCC32)cc1C (stereo unspecified) | 101% (inactive)
17 | CC[N+](C)(CC)CCCCOc1ccc2c(c1)C(=O)c1cc(OCCCC[N+](C)(CC)CC)ccc1-2 | 93.8% (inactive)
18 | O=C(CSc1nc2ccccc2c(=O)[nH]1)NC1CCCCC1 | 103% (inactive)
19 | CCOC(=O)COc1ccc(/C=C2\NC(=S)N(CC)C2=O)cc1 | 94.6% (inactive)
20 | COC(=O)C(C)Oc1ccc(-c2nccc(-c3ccccn3)n2)cc1 (stereo unspecified) | 95.4% (inactive)
21 | O=C(/C=C\c1cccs1)N1CCN(Cc2ccc3c(c2)OCO3)CC1 | 84.1% (inactive)
22 | CCOC(=O)C(C)Sc1ncnc2c1nnn2-c1ccc(F)cc1 (stereo unspecified) | 94.1% (inactive)

System: HepG2 viability, cytotoxicity counter-screen
Test: as above
Settings: not given

Row | Structure (SMILES) | CC50 [µM]
23 | Cc1ccc2c(c1)c(C1=c3ccccc3=NC1=O)c(O)n2C | 12.9
24 | Cc1cccc(/C=C/C(=O)c2ccc([N+](=O)[O-])o2)c1 | 7.91
25 | Cc1ccc2ccc3ccc(C)nc3c2n1 | < 0.195
26 | Cc1ccc(C(=O)N/N=C(/CC(=O)c2cccs2)C(F)(F)F)cc1 | 27.5
27 | Cc1cccc(-c2oc3ccc(-c4ccc5c(c4)OCO5)cc3c2C#Cc2cncn2C)c1 | 44.4
28 | CC(C)NC(=O)c1sc(=S)n2c1[nH]c(=O)c1ccc(C(=O)NCCc3ccc(Cl)cc3)cc12 | 46.1
29 | CNc1nc(SCc2ccccc2Cl)nc2c1CCCC2 | 26.2
30 | S=c1nc[nH]c2nc[nH]c12 | 7.74
31 | Cc1nn2c(NCc3ccccn3)cc(C(C)C)nc2c1-c1ccccc1 | < 0.098
32 | CCC(C)Nc1ccc(NC(C)CC)cc1 (stereo unspecified) | 6.41
33 | CCOC(=O)c1ccc(NC(=O)Cn2ncc(Cl)c(Cl)c2=O)cc1 | 8.43
34 | c1ccc(/N=C2\N=C(Nc3ccccn3)c3ccccc32)nc1 | < 0.098
35 | Oc1ccccc1/C=N/Nc1ccnc(SCc2ccccc2)n1 | 20.1
36 | COC(=O)c1cc(=O)n(-c2ccc(F)cc2)c(=Nc2ccc(F)cc2)s1 | 19.4
